Tests used:
[1] = system: K562 cancer cells; assay: PBMC cytotoxicity against K562 cancer cells (flow cytometry); format: cell-based; conditions: for cytotoxicity of PBMCs against K562 cells, cotreatment with LPS (relative to negative control) / Cytotoxicity (ratio to control), + LPS: 10 μM + LPS 1 μg/mL; for cytotoxicity of PBMCs against K562 cells, cotreatment with LPS (relative to negative control) / enhancement of cytotoxicity of PBMCs against K562 cells (relative to negative control): 18 h, then 4 h coincubation; for cytotoxicity of PBMCs against K562 cells, cotreatment with LPS (relative to negative control): 40:1; for Cytotoxicity (ratio to control), + LPS / Cytotoxicity (ratio to control): Table S2; for Cytotoxicity (ratio to control) / enhancement of cytotoxicity of PBMCs against K562 cells (relative to negative control): alone: compounds 10 μM, LPS 1 μg/mL, IL-2 200 U/mL; for enhancement of cytotoxicity of PBMCs against K562 cells (relative to negative control): effector:target 40:1
Protocol: In this study, we investigated the potential of desmuramylpeptides, both alone and in combination with LPS, to enhance the cytotoxic activity of PBMCs against cancer cells employing a flow-cytometry-based cytotoxicity assay based on coincubation of preactivated PBMCs with fluorescently labeled K562 cancer cells.[82] Among the diverse subpopulations within PBMCs, natural killer (NK) cells play a pivotal role in detecting and eliminating cancer cells. NOD2-mediated NK cell activity against cancer cells arises from both direct NOD2 agonist elicited cytolytic activity of NK cells[83] and indirect activation through cytokine release by other NOD2-responsive cells, such as monocytes, which comprise approximately 10% of PBMCs; such interactions potentially reinforce the immune response.[84] […] To that end, we utilized the entire PBMC population as effector cells rather than isolated NK cells, to mimic conditions more closely resembling the in vivo environment while K562 chronic myelogenous leukemia cells were used as the target cells in a 40:1 effector to target cell ratio.[87]
The PBMC cytotoxicity assays utilizing K562 cells were conducted following previously established methods, with some adjustments.[82] […] Meanwhile, K562 cells were stained with CFSE (Invitrogen, Carlsbad, CA, USA), washed twice with complete medium, and then added (1 × 10^4 cells per well) to the pretreated PBMCs to achieve a final effector cell to target tumor cell ratio of 40:1. Following a 4-h coincubation period at 37 °C with 5% CO2, cells were stained with Sytox blue dead cell stain (Invitrogen) and analyzed using an Attune NxT flow cytometer (Thermo Fisher Scientific, Waltham, MA, USA) along with FlowJo software (Tree Star, Inc., Ashland, OR, USA). Cells positive for both CFSE and Sytox blue were designated as dead K562 cells. PBMCs alone and CFSE-labeled cancer cells alone were also exposed to the compounds at equivalent concentrations and stained with Sytox blue to assess any direct cytotoxic effects of the compounds on PBMCs and cancer cells separately. Each experiment was conducted in duplicate and repeated in three independent biological replicates. Statistical analysis was performed using one-way ANOVA followed by Dunnett’s multiple comparisons test.

[2] = system: human blood monocyte subsets; assay: Monocyte conversion assay in PBMCs (CD14/CD16 flow cytometry); format: cell-based; conditions: 10 μM, 18 h, NT 19.5%
Excerpt: Engagement of NOD2 has been reported to increase the levels of an anti-inflammatory monocyte subset, denoted as patrolling monocytes (CD14^–, CD16^+2), thus exerting a counterintuitive role in inflammatory processes, while concomitantly increasing the levels of total blood monocytes (released from bone marrow).[18] […] This process involves a transition from the inflammatory monocytes, typified by CD14^+CD16^–, through an intermediate subset of CD14^+CD16^+ monocytes. […] To recapitulate this phenomenon, we modified the reported procedure and employed PBMCs in lieu of isolated monocytes. Identification of human blood monocyte subsets was achieved through flow cytometry, utilizing the expression of CD14 and CD16 markers as distinguishing criteria. […] Similar to what has been reported (e.g., inactivity of murabutide),[18] also in our case not all NOD2 agonists were equally endowed with the ability to generate patrolling monocytes.
The monocyte conversion assay was conducted following previously established methods, with some adjustments.[18] Peripheral blood mononuclear cells were plated at a density of 3 × 10^6 cells/mL in 24-well plates containing 700 μL of growth medium. Cells were then treated with MDP and desmuramylpeptides (10 μM) or the corresponding vehicle (0.1% DMSO). Following an incubation period at 37 °C with 5% CO2, cells were transferred to 1.5 mL tube using phosphate-buffered saline (PBS) and scraper. The cells were blocked with human TruStain Fcx (BioLegend) and stained using antihuman CD16 antibodies/Alexa Fluor 488 (BioLegend); antihuman CD14 antibodies/PE-Cy7 (BioLegend); antihuman HLA-DR antibodies/APC-Fire750 (BioLegend) and blocked with TrueStain Monocyte Blocker. A viability dye Helix NP Blue (BioLegend) was added to the previous panel to discriminate live cells. PBMC were analyzed using an Attune NxT flow cytometer (Thermo Fisher Scientific, Waltham, MA, USA) and the FlowJo software (Tree Star, Inc., Ashland, OR, USA). Initially, lymphocytes (CD14^–, CD16^–) and NK (CD16^–, HLA-DR^–) were eliminated, after which classical, intermediate and nonclassical monocytes were specifically identified by selective gating strategy as follows: CD14^+ CD16^– (classical), CD14^+ CD16^+ (intermediate) and CD14^– CD16^+ (nonclassical). Each experiment was conducted in duplicate and repeated in three independent biological replicates.

[3] = system: CD4+ T cells cocultured with BMDCs; assay: BMDC antigen presentation to ovalbumin-specific CD4+ T cells (OT II); format: cell-based, C57BL/6 mouse; conditions: BMDCs pretreated 10 μM + ovalbumin 50 μg/mL 18 h, coculture 72 h; OVA-treated cells 63.8%
Protocol: For this study, we narrowed down the selection of suitable desmuramylpeptides even further. In order to assess the adjuvant potential of selected desmuramylpeptides with regard to their effect on DC-mediated activation of CD4^+ and CD8^+ T cells, we conducted an ex vivo antigen-presentation assay utilizing C57BL/6 mouse bone marrow-derived DCs (BMDCs). Upon stimulation with desmuramylpeptides at 10 μM, in conjunction with ovalbumin soluble protein (50 μg/mL), BMDCs were cocultured with carboxyfluorescein succinimidyl ester (CFSE)-labeled naïve ovalbumin-specific CD4^+ or CD8^+ T cells, which were isolated from splenocytes of OT II and OT I transgenic mice, respectively. […] Additionally, we investigated how the priming of T cells elicited by the tested compounds impacted the cytokine profiles secreted in BMDC/T-cell cocultures.
CD4^+ and CD8^+ T cells were isolated from splenocytes of OT II and OT I transgenic mice using CD4^+ and CD8^+ T cell isolation kits (Miltenyi Biotec, Germany) following the manufacturer’s instructions. The purified T cells were labeled with CFSE (Invitrogen, Carlsbad, CA, USA) and subsequently washed. Next, 5 × 10^4 T cells were combined with 1 × 10^4 BMDCs/well (pretreated with desmuramylpeptides at 10 μM and 50 μg/mL ovalbumin [Invivogen, San Diego, CA, USA] for 18 h and then washed). Following a 72-h incubation period at 37 °C with 5% CO2, supernatants were harvested and stored at −80 °C for cytokine analysis. The cells were then stained with Fixable viability dye eFluor 780 (eBioscience, Thermo Fisher Scientific, MA, USA), anti-Thy1.2-PE-Cy7 antibodies (Biolegend, San Diego, CA, USA), anti-CD8-eFluor450 antibodies (eBioscience), anti-CD4-eFluor450 antibodies (eBioscience), and anti-CD25-APC antibodies (Biolegend) before analysis using a Beckman Coulter Cytoflex S flow cytometer (CA, USA) and FlowJo software (Tree Star, Inc., Ashland, OR, USA). Live Thy1.2+/CD4+ and Thy1.2+/CD8+ cells were assessed for CFSE dilution and CD25 expression. Each experiment was performed in duplicate and repeated in two independent biological replicates. Statistical significance was determined using paired t tests.

CCCC(=O)Oc1ccc(/C=C/C(=O)NCC(=O)N[C@H](C(=O)N[C@H](CCC(=O)OCC)C(=O)OCC)C(C)C)cc1OC [Compound 3, Diethyl ((E)-3-(4-(Butyryloxy)-3-methoxyphenyl)acryloyl)glycyl-L-valyl-D-glutamate]
cytotoxicity of PBMCs against K562 cells, cotreatment with LPS (relative to negative control) [1]: 0.98 fold | Cytotoxicity (ratio to control), + LPS [1]: 0.98 ± 0.18 | Cytotoxicity (ratio to control) [1]: 1.04 ± 0.06 | enhancement of cytotoxicity of PBMCs against K562 cells (relative to negative control) [1]: no activity | levels of nonclassical monocytes [2]: 31.9% | fraction of activated and proliferating CD4+ T-cells (CD25+, CFSE low) [3]: 77.9%

CC/C=C\C/C=C\C/C=C\C/C=C\C/C=C\CCCC(=O)Oc1ccc(/C=C/C(=O)NCC(=O)N[C@H](C(=O)N[C@H](CCC(=O)OCC)C(=O)OCC)C(C)C)cc1OC [Compound 23, Diethyl ((E)-3-(4-(((5Z,8Z,11Z,14Z,17Z)-Icosa-5,8,11,14,17-pentaenoyl)oxy)-3-methoxyphenyl)acryloyl)glycyl-L-valyl-D-glutamate]
cytotoxicity of PBMCs against K562 cells, cotreatment with LPS (relative to negative control) [1]: 1.30 fold | Cytotoxicity (ratio to control), + LPS [1]: 1.30 ± 0.26 | Cytotoxicity (ratio to control) [1]: 1.02 ± 0.08 | enhancement of cytotoxicity of PBMCs against K562 cells (relative to negative control) [1]: no activity | levels of nonclassical monocytes [2]: 31.0% | fraction of activated and proliferating CD4+ T-cells (CD25+, CFSE low) [3]: 79.7%

CCOC(=O)CC[C@@H](NC(=O)[C@@H](NC(=O)CNC(=O)/C=C/c1ccc(OC(=O)CO[C@H]2CC[C@@]3(C)C(=CC[C@H]4[C@@H]5CC[C@H]([C@H](C)CCCC(C)C)[C@@]5(C)CC[C@@H]43)C2)c(OC)c1)C(C)C)C(=O)OCC [Compound 26, Diethyl ((E)-3-(4-(2-(((8S,9S,10R,13R,14S,17R)-10,13-Dimethyl-17-((R)-6-methylheptan-2-yl)-2,3,4,7,8,9,10,11,12,13,14,15,16,17-tetradecahydro-1H-cyclopenta[a]phenanthren-3-yl)oxy)acetoxy)-3-methoxyphenyl)acryloyl)glycyl-L-valyl-D-glutamate]
cytotoxicity of PBMCs against K562 cells, cotreatment with LPS (relative to negative control) [1]: 2.39 fold | Cytotoxicity (ratio to control), + LPS [1]: 2.39 ± 0.27 | Cytotoxicity (ratio to control) [1]: 1.34 ± 0.05 | enhancement of cytotoxicity of PBMCs against K562 cells (relative to negative control) [1]: 1.34 fold | levels of nonclassical monocytes [2]: 44.8% | fraction of activated and proliferating CD4+ T-cells (CD25+, CFSE low) [3]: 62.7%

Source: PMC11472310, “Distinctive Immune Signatures Driven by Structural Alterations in Desmuramylpeptide NOD2 Agonists” (Journal of Medicinal Chemistry, 2024)
